Where a name gives a salt, the structure may show the parent alone.
Legend:
[1] = physchem; assay type: physicochemical
Source text: The following data and examples serve to illustrate the invention.

[2] = in words, background; cited from earlier work
[3] = in words, background; cited from earlier work; remark: listed apart in the source
[4] = tested on: malarial infections; conditions: in words, background; cited from earlier work

`CCCCN(CCCC)CCC(O)c1cc2c(Cl)cc(Cl)cc2c2cc(C(F)(F)F)ccc12` (centres unmarked) [crystalline halofantrine free base] gave a solubility ([1]; triglycerides, organic solvent or mixture, solubility in triglycerides) of over 80000 µg/mL.
In the case of `CCCCN(CCCC)CCC(O)c1cc2c(Cl)cc(Cl)cc2c2cc(C(F)(F)F)ccc12` (centres unmarked) [halofantrine hydrochloride], the solubility ([1]; aqueous solutions, solubility in aqueous solutions) is given as about 1 µg/mL, the solubility ([1]; peanut oil, organic solvent or mixture, solubility in a triglyceride lipid such as peanut oil) is given as under 1000 µg/mL and the “aqueous and lipid solubility” value [2] is given as “poor”. The “absorption after oral administration” value [3] was “poor and often variable” and the “effectiveness in the treatment of malarial infections” value [4] was “very effective”.
For `CCCCN(CCCC)CCC(O)c1cc2c(Cl)cc(Cl)cc2c2cc(C(F)(F)F)ccc12` (centres unmarked) [halofantrine free base], the “lipid solubility and miscibility” value [1] was “unexpectedly high”.
In the case of `CCCCN(CCCC)CCC(O)c1cc2c(Cl)cc(Cl)cc2c2cc(C(F)(F)F)ccc12` (centres unmarked) [amorphous halofantrine free base], the solubility ([1]; peanut oil, organic solvent or mixture, miscible/soluble with peanut oil) was over 400000 µg/mL.
